According to ChEMBL document CHEMBL6083184, “Small molecule agents against alopecia: Potential targets and related pathways” (Eur J Med Chem, 2024):

Columns and labels:
[1] = Inhibition of MPC (unknown origin); design: species or system Homo sapiens
[2] = target: Mothers against decapentaplegic homolog 2 (Homo sapiens, UniProt Q15796); experiment: Inhibition of SMAD2 (unknown origin)
Chain of Mothers against decapentaplegic homolog 2 (Q15796 whole entry): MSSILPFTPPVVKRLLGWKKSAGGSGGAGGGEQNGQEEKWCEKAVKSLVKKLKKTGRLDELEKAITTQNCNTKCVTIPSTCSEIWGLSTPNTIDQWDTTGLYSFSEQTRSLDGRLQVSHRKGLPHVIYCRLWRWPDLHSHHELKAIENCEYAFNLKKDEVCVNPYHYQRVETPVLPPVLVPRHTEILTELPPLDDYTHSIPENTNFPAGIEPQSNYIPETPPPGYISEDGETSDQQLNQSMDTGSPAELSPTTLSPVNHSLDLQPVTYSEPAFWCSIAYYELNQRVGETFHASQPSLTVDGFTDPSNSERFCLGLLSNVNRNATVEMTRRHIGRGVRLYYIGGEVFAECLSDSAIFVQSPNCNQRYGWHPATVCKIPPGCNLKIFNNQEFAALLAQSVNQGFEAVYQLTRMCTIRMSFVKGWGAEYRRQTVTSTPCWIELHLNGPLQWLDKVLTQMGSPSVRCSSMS

Row | IC50 [1] [nM] | IC50 [2] [nM] | Compound
1 | 16.6 |  | N#C/C(=C\c1cn(-c2ccccc2)c2ccccc12)C(=O)O
2 |  | 8.7 | Cc1csc(-c2nc[nH]c2-c2ccc3ncsc3c2)n1
